Where only a bound is given, the exact number is not on record here.

The target of the test is T1, Rat IKK-2 (Rattus norvegicus, UniProt Q9QY78).
T1 sequence (Q9QY78 1-757): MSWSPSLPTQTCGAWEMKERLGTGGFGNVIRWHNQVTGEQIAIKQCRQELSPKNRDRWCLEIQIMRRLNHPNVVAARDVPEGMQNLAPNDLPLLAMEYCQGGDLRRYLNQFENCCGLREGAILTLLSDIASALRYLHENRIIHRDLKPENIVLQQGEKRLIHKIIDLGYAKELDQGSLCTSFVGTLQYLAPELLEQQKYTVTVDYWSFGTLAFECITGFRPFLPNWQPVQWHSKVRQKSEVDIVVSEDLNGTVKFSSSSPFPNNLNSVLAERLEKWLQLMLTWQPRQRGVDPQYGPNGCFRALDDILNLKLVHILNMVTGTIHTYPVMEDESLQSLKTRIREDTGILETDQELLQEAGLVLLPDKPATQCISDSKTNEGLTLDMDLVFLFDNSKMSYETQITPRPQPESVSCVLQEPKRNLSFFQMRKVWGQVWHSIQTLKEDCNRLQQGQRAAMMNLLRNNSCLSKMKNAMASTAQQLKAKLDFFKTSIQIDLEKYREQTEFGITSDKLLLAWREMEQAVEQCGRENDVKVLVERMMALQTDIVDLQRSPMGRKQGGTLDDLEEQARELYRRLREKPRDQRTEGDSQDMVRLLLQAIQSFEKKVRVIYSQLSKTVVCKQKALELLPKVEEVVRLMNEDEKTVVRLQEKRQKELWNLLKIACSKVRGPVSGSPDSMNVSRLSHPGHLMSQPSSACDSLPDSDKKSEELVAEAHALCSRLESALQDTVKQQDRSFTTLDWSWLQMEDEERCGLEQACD
Description: Rat IKK-2 enzyme assay. Particulars: read-out: IC50 (μM) rIKK-2. The class given is biochemical. The method, then:
Kinase activity was measured using a biotinylated […] peptide (Gly-Leu-Lys-Lys-Glu-Arg-Leu-Leu-Asp-Asp-Arg-His-Asp-Ser32-Gly-Leu-Asp-Ser36-Met-Lys-Asp-Glu-Glu) (American Peptide Co.). 20 μL of the standard reaction mixture contained 5 μM biotinylated IκBα peptide, 0.1 μCi/reaction [γ-^33P] ATP (Amersham) (about 1×10^5 cpm), 1 μM ATP (Sigma), 1 mM DTT (Sigma), 2 mM MgCl2 (Sigma), 2 mM MnCl2 (Sigma), 10 mM NaF (Sigma), 25 mM Hepes (Sigma) buffer, pH. 7.6 and 20 μL enzyme solution (50 nM/rxn or 200 ng/rxn) and 10 μL inhibitor in a final volume of 50 μL. After incubation at 25° C. for 60 min, 150 μL resin was added to each well to stop the reaction. Resin was mixed and allowed to settle for 1 h and 50 μL of supernatant was removed to a Micolite 2 flat bottom plate (Dynex). 150 μL of scintillation fluid (Microscint 40) (Packard) was added to each well. Incorporation of [γ-^33P] ATP was measured using a Top-Count NXT (Packard).
As usually defined, the IC50 is the concentration that gives 50% inhibition. As to `NC(=O)Nc1cn(-c2ccc(S(=O)(=O)c3ccccc3F)c(Cl)c2)nc1C(N)=O` [Example 271, 4-[(aminocarbonyl)amino]-1-{3-chloro-4-[(2-fluorophenyl)sulfonyl]phenyl}-1H-pyrazole-3-carboxamide], the IC50 turned out to be 0.956 µM.

With `NC(=O)Nc1cn(-c2ccc(-c3ccc(O)cc3)c(Cl)c2)nc1C(N)=O` [Example 272, 4-[(aminocarbonyl)amino]-1-(2-chloro-4′-hydroxy-1,1′-biphenyl-4-yl)-1H-pyrazole-3-carboxamide], the IC50 turned out to be 0.167 µM.

In the case of `NC(=O)Nc1cn(-c2cccc(Cl)c2F)nc1C(N)=O` [Example 273, 1-(3-chloro-2-fluoro-phenyl)-4-ureido-1 h-pyrazole-3-carboxylic acid amide], the IC50 was 0.203 µM.

As for `CCOc1cc(-n2cc(NC(N)=O)c(C(N)=O)n2)ccc1-c1ccc(OCC(N)=O)cc1` [Example 275, 4-[(aminocarbonyl)amino]-1-[4′-(2-amino-2-oxoethoxy)-2-ethoxy-1,1′-biphenyl-4-yl]-1H-pyrazole-3-carboxamide], the concentration for half-maximal inhibition (IC50) was found to be 10.8 µM.

In the case of `NC(=O)Nc1cn(-c2ccc(Br)c(O)c2)nc1C(N)=O` [Example 276, 4-[(aminocarbonyl)amino]-1-(4-bromo-3-hydroxyphenyl)-1H-pyrazole-3-carboxamide], the IC50 came to 0.194 µM.

Turning to `Cc1cccc(Sc2ccc(-n3cc(NC(N)=O)c(C(N)=O)n3)cc2)c1` [Example 292, 1-(1-(4-(m-tolylthio)phenyl)-3-carbamoyl-1H-pyrazol-4-yl)urea], the 50% inhibitory concentration (IC50) was found to be 4.16 µM.

Take `NC(=O)Nc1cn(-c2ccc(Sc3cccc(Br)c3)cc2)nc1C(N)=O` [Example 293, 1-(1-(4-(3-bromophenylthio)phenyl)-3-carbamoyl-1H-pyrazol-4-yl)urea]: the IC50 is 4.82 µM.

For the molecule `NC(=O)Nc1cn(-c2ccc([S+]([O-])c3ccncc3)cc2)nc1C(N)=O` (stereo not drawn) [Example 294, 1-(3-carbamoyl-1-(4-(pyridin-4-ylsulfinyl)phenyl)-1H-pyrazol-4-yl)urea], the half-maximal inhibitory concentration (IC50) stood at 0.237 µM.

As for `NC(=O)Nc1cn(-c2ccc(S(=O)(=O)c3ccncc3)cc2)nc1C(N)=O` [Example 295, 1-(3-carbamoyl-1-(4-(pyridin-4-ylsulfonyl)phenyl)-1H-pyrazol-4-yl)urea], the IC50 is 0.0369 µM.

Turning to `NC(=O)Nc1cn(-c2cccc(O)c2)nc1C(N)=O` [Example 300, 1-(3-hydroxy-phenyl)-4-ureido-1H-pyrazole-3-carboxylic acid amide], the half-inhibitory concentration (IC50) was 0.378 µM.

Turning to `Cc1cc(-n2cc(NC(N)=O)c(C(N)=O)n2)ccc1F` [Example 304, 4-[(aminocarbonyl)amino]-1-(4-fluoro-3-methylphenyl)-1H-pyrazole-3-carboxamide], the IC50 worked out at 0.547 µM.

On to `CCCc1ccc(-n2cc(NC(N)=O)c(C(N)=O)n2)cc1` [Example 305, 4-[(aminocarbonyl)amino]-1-(4-propylphenyl)-1H-pyrazole-3-carboxamide], for which the IC50 amounted to 0.098 µM.

As for `CCCOc1ccc(-n2cc(NC(N)=O)c(C(N)=O)n2)cc1C` [Example 306, 4-[(aminocarbonyl)amino]-1-(3-methyl-4-propoxyphenyl)-1H-pyrazole-3-carboxamide], the half-inhibitory concentration (IC50) was 0.766 µM.

For `Cc1cc(-n2cc(NC(N)=O)c(C(N)=O)n2)ccc1OCc1ccccc1` [Example 307, 4-[(aminocarbonyl)amino]-1-[4-(benzyloxy)-3-methylphenyl]-1H-pyrazole-3-carboxamide], the IC50 worked out at 6.44 µM.

In the case of `Cc1cc(-n2cc(NC(N)=O)c(C(N)=O)n2)ccc1-c1ccc(O)cc1` [Example 308, 1-(4′-hydroxy-2-methyl-biphenyl-4-yl)-4-ureido-1H-pyrazole-3-carboxylic acid amide], the concentration for half-maximal inhibition (IC50) stood at 0.099 µM.

On to `Cc1cc(O)ccc1-c1ccc(-n2cc(NC(N)=O)c(C(N)=O)n2)cc1C` [Example 309, 1-(4′-hydroxy-2,2′-dimethyl-biphenyl-4-yl)-4-ureido-1H-pyrazole-3-carboxylic acid amide], for which the IC50 is 0.086 µM.

Regarding `Cc1cc(-n2cc(NC(N)=O)c(C(N)=O)n2)ccc1-c1ccc(O)c(F)c1` [Example 310, 1-(3′-fluoro-4′-hydroxy-2-methyl-biphenyl-4-yl)-4-ureido-1H-pyrazole-3-carboxylic acid amide], the IC50 is 0.095 µM.

As to `Cc1cc(-n2cc(NC(N)=O)c(C(N)=O)n2)ccc1Sc1cccc(F)c1` [Example 311, 1-[4-(3-fluoro-phenylsulfanyl)-3-methyl-phenyl]-4-ureido-1H-pyrazole-3-carboxylic acid amide], the IC50 was 2.33 µM.

For `Cc1cc(-n2cc(NC(N)=O)c(C(N)=O)n2)ccc1S(=O)(=O)c1cccc(F)c1` [Example 312, 1-[4-(3-fluoro-benzenesulfonyl)-3-methyl-phenyl]-4-ureido-1H-pyrazole-3-carboxylic acid amide], the concentration for half-maximal inhibition (IC50) turned out to be 0.975 µM.

In the case of `CCc1ccccc1-n1cc(NC(N)=O)c(C(N)=O)n1` [Example 314, 1-(2-ethyl-phenyl)-4-ureido-1H-pyrazole-3-carboxylic acid amide], the IC50 was more than 20 µM.

As to `Cc1cccc(-n2cc(NC(N)=O)c(C(N)=O)n2)c1` [Example 315, 1-m-tolyl-4-ureido-1H-pyrazole-3-carboxylic acid amide], the IC50 was found to be 0.632 µM.

On to `NC(=O)Nc1cn(-c2cccc(F)c2)nc1C(N)=O` [Example 316, 1-(3-fluoro-phenyl)-4-ureido-1H-pyrazole-3-carboxylic acid amide], for which the IC50 came to 0.533 µM.

On to `NC(=O)Nc1cn(-c2cccc(C(F)(F)F)c2)nc1C(N)=O` [Example 317, 1-(3-trifluoromethyl-phenyl)-4-ureido-1H-pyrazole-3-carboxylic acid amide], for which the half-inhibitory concentration (IC50) amounted to 1.46 µM.

As to `Cc1ccccc1-n1cc(NC(N)=O)c(C(N)=O)n1` [Example 318, 1-o-tolyl-4-ureido-1H-pyrazole-3-carboxylic acid amide], the 50% inhibitory concentration (IC50) is 8.52 µM.

For `NC(=O)Nc1cn(-c2cccc3c2sc2ccccc23)nc1C(N)=O` [Example 324, 4-[(aminocarbonyl)amino]-1-dibenzo[b,d]thien-4-yl-1H-pyrazole-3-carboxamide], the IC50 was more than 20 µM.

Take `Cc1ccc(-n2cc(NC(N)=O)c(C(N)=O)n2)cc1F` [Example 326, 4-[(aminocarbonyl)amino]-1-(3-fluoro-4-methylphenyl)-1H-pyrazole-3-carboxamide]: the IC50 is 0.365 µM.

Regarding `NC(=O)Nc1cn(-c2ccc(OC(F)(F)F)cc2)nc1C(N)=O` [Example 328, 4-[(aminocarbonyl)amino]-1-[4-(trifluoromethoxy)phenyl]-1H-pyrazole-3-carboxamide], the IC50 came out at 0.446 µM.

In the case of `COc1ccc(-n2cc(NC(N)=O)c(C(N)=O)n2)cc1OC` [Example 330, 4-[(aminocarbonyl)amino]-1-(3,4-dimethoxyphenyl)-1H-pyrazole-3-carboxamide], the half-maximal inhibitory concentration (IC50) came to 1.78 µM.

Take `CCCOc1ccc(-n2cc(NC(N)=O)c(C(N)=O)n2)cc1` [Example 332, 4-[(aminocarbonyl)amino]-1-(4-propoxyphenyl)-1H-pyrazole-3-carboxamide]: the concentration for half-maximal inhibition (IC50) stood at 1.08 µM.

`CCCOc1ccc(-n2cc(NC(N)=O)c(C(N)=O)n2)cc1Cl` [Example 334, 4-[(aminocarbonyl)amino]-1-(3-chloro-4-propoxyphenyl)-1H-pyrazole-3-carboxamide]: the half-inhibitory concentration (IC50) worked out at 2.42 µM.

Source of the values: US20050197338A1, “Substituted pyrazole urea compounds for the treatment of inflammation” (priority 2003, published 2005).
